This passage reports remaining activity results from patent US20100063085A1, “METHOD OF TREATING LEARNING IMPAIRMENT IN DOWN'S SYNDROME SUBJECTS” (University Court of The University of Dundee, priority 2008, published 2010).

What all share (format): biochemical
One assay addresses T1, SAPK4/p38d (Homo sapiens, UniProt O15264).
T1 sequence (O15264 1-365): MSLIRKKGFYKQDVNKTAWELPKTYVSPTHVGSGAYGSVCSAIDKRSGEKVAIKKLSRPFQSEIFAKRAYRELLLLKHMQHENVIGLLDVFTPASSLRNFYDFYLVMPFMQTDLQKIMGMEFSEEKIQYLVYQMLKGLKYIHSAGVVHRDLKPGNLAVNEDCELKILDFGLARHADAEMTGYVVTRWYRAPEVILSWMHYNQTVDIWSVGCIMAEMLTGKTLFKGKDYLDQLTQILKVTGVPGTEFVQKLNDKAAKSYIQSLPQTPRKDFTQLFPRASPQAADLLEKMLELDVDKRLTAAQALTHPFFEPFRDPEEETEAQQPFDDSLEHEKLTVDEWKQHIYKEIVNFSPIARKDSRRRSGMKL
Put plainly: SAPK4/p38d 33P kinase assay. As to conditions: read-out: SAPK4/p38d activity as percentage of control without inhibitor. The procedure:
(§1) All assays (25.5 μl) were carried out at room temperature (21° C.) and were linear with respect to time and enzyme concentrations under the conditions used. Assays were performed for 30 minutes except assays for LCK and PKB which were performed for 15 minutes using Multidrop Micro reagent dispensers (Thermo Electron Corporation, Waltham, Mass. 02454, USA) in a 96-well format. The concentration of […] [γ-^33P] ATP (800 cpm/pmol) in the assays was one of three concentrations (5, 20 or 50 μM) in order to be at or below Km for ATP for the enzyme. Assays were initiated with MgATP and stopped by addition of 5 μl of 0.5M orthophosphoric acid. Assays were then harvested onto P81 filterplates using a unifilter harvester (PerkinElmer, Boston, Mass. 02118, USA), with a wash buffer of 50 mM orthophosphoric acid. Filterplates were then air dried overnight. 10 μl of Microscint O was added per well prior to counting for radioactivity.
(§2) MKK1, JNK/SAPK1c, SAPK2a/p38, SAPK2b/p38β2, SAPK3/p38γ, SAPK4/p38δ, MAPK2/ERK2, MAPKAP-K1β, MAPKAP-K2, MSK1, PRAK, PKA, PKCα, PDK1, SGK, p70S6K, GSK3β, ROCK-II, PRK2, AMPK, CHK1, CHK2, CK2, PHK, LCK, were assayed according to Davies et al., (Davies, S. P., Reddy, H., Caivano, M. and Cohen, P. Biochem. J. 351, 95-105, 2000.
(§3) CSK and CDK2/cyclinA, were assayed according to Bain et al. (Bain J, McLauchlan H, Elliott M, Cohen P. Biochem J. 371, 199-204, 2003., except that ATP concentrations were either 5, 20 or 50 micromolar so that they were at or below the Km for ATP. The ATP concentrations used were as follows, 5 μM for assays of MKK1, SAPK3, SAPK4, GSK3β, PRK2 CK2 20 μm for assays of JNK, SAPK2β, MAPKAP-K2, MSK1, PRAK, PKA, […], PDK1, SGK, p70S6K, ROCK-II, CHK1, CHK2, CSK, CDK2, and 50 μM for assays of SAPK2a, MAPK2/ERK2, AMPK, LCK, PHK and MAPKAP-K1β.

A further assay concerns the target MAPKAP-K1a (Homo sapiens, UniProt Q15418). Put plainly: MAPKAP-K1a 33P kinase assay. The following applies: read-out: MAPKAP-K1a activity as percentage of control without inhibitor. The procedure: as §1
MAPKAP-K1a (5-20 mU diluted in 20 mM MOPS pH 7.5, 1 mM EDTA, 0.01% Brij35, 5% glycerol, 0.1% β-mercaptoethanol, 1 mg/ml BSA) is assayed against […] in a final volume of 25.5 μl containing 50 mM Na-β-glycerophosphate pH 7.5, 0.5 mM EDTA, 30 μM substrate peptide, 10 mM magnesium acetate and 0.05 mM [33P- γATP] (50-1000 cpm/pmole) and incubated for 40 min at room temperature.

For the next assay, the target named is PKCa (Homo sapiens, UniProt P17252). As to the kind of experiment: PKCa 33P kinase assay. The following applies: read-out: PKCa activity as percentage of control without inhibitor; for remaining activity at 1 µM: inhibitor 1 μM; for remaining activity at 10 µM: inhibitor 10 μM. Here is the method:
as §1, §2, §3

A further assay addresses GSK3b (Homo sapiens, UniProt P49841). Put plainly: GSK3b 33P kinase assay. As to conditions: read-out: GSK3b activity as percentage of control without inhibitor. Here is the method: as §1, §2, §3
The target of the next assay is T2, NEK2a (Homo sapiens, UniProt P51955).
T2 sequence (P51955 1-445): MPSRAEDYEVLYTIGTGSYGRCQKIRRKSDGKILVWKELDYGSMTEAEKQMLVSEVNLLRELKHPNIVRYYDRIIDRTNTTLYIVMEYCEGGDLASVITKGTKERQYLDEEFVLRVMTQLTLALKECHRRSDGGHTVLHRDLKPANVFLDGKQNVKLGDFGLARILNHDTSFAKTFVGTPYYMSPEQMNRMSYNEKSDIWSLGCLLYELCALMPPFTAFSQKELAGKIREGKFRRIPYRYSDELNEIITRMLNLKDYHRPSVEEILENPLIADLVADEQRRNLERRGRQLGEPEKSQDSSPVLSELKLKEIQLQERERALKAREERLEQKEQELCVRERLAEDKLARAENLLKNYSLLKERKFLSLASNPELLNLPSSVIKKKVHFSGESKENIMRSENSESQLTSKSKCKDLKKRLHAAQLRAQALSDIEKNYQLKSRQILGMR
As to the kind of experiment: NEK2a 33P kinase assay. The following applies: read-out: NEK2a activity as percentage of control without inhibitor. Here is the method:
as §1
5-20 mU of NEK2a (diluted in 50 mM Tris (pH 7.5), 0.1 mM EGTA, 1 mg/ml BSA, 0.1%, β-Mercaptoethanol) is assayed against NEK2a peptide ([…]) in a final volume of 25.5 μl containing 50 mM Tris (pH 7.5), 0.1 mM EGTA, 0.01% Brij, 0.1%, β-Mercaptoethanol, 300 μM NEK2a peptide, 10 mM magnesium acetate and 0.05 mM [^33P- γATP](500-1000 cpm/pmole) and incubated for 30 mins at room temperature.

Each structure is given as a SMILES string. Read-outs that look alike come from different tables or passages of the source.

Sequence of GSK3b (P49841 whole entry, species assumed): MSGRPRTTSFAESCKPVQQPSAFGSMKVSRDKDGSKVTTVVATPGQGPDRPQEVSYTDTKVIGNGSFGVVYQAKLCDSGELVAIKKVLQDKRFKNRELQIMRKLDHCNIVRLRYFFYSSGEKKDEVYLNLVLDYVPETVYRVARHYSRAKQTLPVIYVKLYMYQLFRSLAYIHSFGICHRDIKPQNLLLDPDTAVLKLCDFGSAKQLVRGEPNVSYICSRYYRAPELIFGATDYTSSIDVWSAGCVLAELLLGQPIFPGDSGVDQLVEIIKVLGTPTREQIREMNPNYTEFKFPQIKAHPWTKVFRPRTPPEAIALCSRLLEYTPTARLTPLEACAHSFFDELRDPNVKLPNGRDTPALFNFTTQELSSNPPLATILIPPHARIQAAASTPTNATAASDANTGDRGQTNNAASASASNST
Sequence of MAPKAP-K1a (Q15418 whole entry, species assumed): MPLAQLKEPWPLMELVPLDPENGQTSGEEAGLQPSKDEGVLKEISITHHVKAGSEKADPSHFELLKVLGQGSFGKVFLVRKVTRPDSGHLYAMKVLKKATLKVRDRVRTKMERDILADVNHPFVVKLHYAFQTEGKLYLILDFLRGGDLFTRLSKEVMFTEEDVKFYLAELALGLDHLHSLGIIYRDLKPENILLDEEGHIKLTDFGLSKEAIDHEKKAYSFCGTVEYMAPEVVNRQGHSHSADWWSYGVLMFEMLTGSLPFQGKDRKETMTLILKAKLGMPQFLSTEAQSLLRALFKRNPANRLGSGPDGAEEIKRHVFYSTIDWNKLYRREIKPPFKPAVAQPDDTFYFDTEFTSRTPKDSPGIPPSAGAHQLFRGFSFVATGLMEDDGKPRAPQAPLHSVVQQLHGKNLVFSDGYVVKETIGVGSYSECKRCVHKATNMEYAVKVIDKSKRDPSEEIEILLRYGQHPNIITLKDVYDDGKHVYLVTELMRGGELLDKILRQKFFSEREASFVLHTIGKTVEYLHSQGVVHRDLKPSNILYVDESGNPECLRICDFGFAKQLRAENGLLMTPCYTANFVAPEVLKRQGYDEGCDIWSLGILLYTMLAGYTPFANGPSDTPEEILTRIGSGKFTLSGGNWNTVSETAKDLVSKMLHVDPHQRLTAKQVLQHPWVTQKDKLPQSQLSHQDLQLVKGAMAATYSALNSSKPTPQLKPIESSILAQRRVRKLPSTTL

Consider `COc1ccc2c(c1)[nH]c1c(C)nccc12` [Harmine], for which the remaining activity at 1 µM at SAPK4/p38d was 96%; at MAPKAP-K1a it was 105%; on PKCa, 96%; on GSK3b, 82%; at NEK2a, 106%. Moreover, the remaining activity at 10 µM at SAPK4/p38d was 82%; on MAPKAP-K1a it was 92%; on PKCa it was 101%; at GSK3b it was 72%; at NEK2a it was 111%.

For `CC1=NCCc2c1[nH]c1cc(O)ccc21` [Harmalol], the remaining activity at 1 µM on SAPK4/p38d (inhibitor 1 μM) is 101%; at MAPKAP-K1a (inhibitor 1 μM) it was 101%; on PKCa it was 109%; on GSK3b (inhibitor 1 μM) it was 90%; at NEK2a (inhibitor 1 μM) it was 104%. Further, the remaining activity at 10 µM on SAPK4/p38d (inhibitor 10 μM) is 93%; at MAPKAP-K1a (inhibitor 10 μM) it was 85%; at PKCa, 78%; on GSK3b (inhibitor 10 μM) it was 73%; on NEK2a (inhibitor 10 μM), 83%.

In the case of `COc1ccc2c3c([nH]c2c1)C(C)=NCC3` [Harmaline], the remaining activity at 1 µM at SAPK4/p38d (inhibitor 1 μM) amounted to 76%; at MAPKAP-K1a (inhibitor 1 μM), 98%; on PKCa it was 88%; on GSK3b, 77%; on NEK2a (inhibitor 1 μM), 69%. Further, the remaining activity at 10 µM at SAPK4/p38d (inhibitor 10 μM) was 113%; on MAPKAP-K1a (inhibitor 10 μM) it was 90%; on PKCa, 81%; on GSK3b, 82%; at NEK2a (inhibitor 10 μM), 109%.
